In patent publication US20110039721A1, “METHOD FOR PREDICTION ABOUT CARCINOGENICITY OF SUBSTANCE IN RODENT” (Chemicals Evaluation and Research Institute, priority 2007, published 2011):

Experiments:
liver = conditions: in vivo; cited from earlier work
[1] = test system: mRNA expressed from the genes (A) to (D) in rat liver; test: Behavior of genes (mRNA expression level, oligo-DNA microarray) in rat liver after 28-day oral administration; assay type: in vivo
Summary of the method: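 Liver mRNA measured by oligo-DNA microarray after 28 days of once-daily oral gavage in 5-week-old male F344 rats (n=4 per group), with vehicle controls given equal solvent volume. Significance threshold: 1.5-fold up or down versus control, with changes opposite in direction to other carcinogens counted as not significant.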

rodent = conditions: in vivo; cited from earlier work
[2] = gene group (A), Unigene No. Rn.167075
[3] = gene group (C), Unigene No. Rn.120914
[4] = (C), Unigene Rn.120914, defined direction +, rat liver, oral once daily 28 days

## CCC[N+](=O)[O-] [TS036, 1-Nitropropane]
liver
  Liver carcinogenicity: Cr−
[1]; gene group (A), Unigene No. Rn.144554
  Behavior of gene caused by administration of chemical substance, Gene No. 4846: −
[1]; [2]
  Behavior of gene caused by administration of chemical substance, Gene No. 2026: −
  Behavior of gene caused by administration of chemical substance, Gene No. 4218: −
[1]; gene group (A), Unigene No. Rn.5834
  Behavior of gene caused by administration of chemical substance, Gene No. 6182: −
[1]; gene group (A), Unigene No. Rn.9836
  Behavior of gene caused by administration of chemical substance, Gene No. 5600: −
[1]; gene group (B), Unigene No. Rn.1430
  Behavior of gene caused by administration of chemical substance, Gene No. 1494: −
[1]; gene group (B), Unigene No. Rn.19329
  Behavior of gene caused by administration of chemical substance, Gene No. 2045: −
[1]; gene group (B), Unigene No. Rn.21240
  Behavior of gene caused by administration of chemical substance, Gene No. 2203: −
[1]; gene group (C), Unigene No. Rn.106184
  Behavior of gene caused by administration of chemical substance, Gene No. 533: −
[1]; gene group (C), Unigene No. Rn.108075
  Behavior of gene caused by administration of chemical substance, Gene No. 725: +
[1]; gene group (C), Unigene No. Rn.11766
  Behavior of gene caused by administration of chemical substance, Gene No. 1163: −
[1]; gene group (C), Unigene No. Rn.118529
  Behavior of gene caused by administration of chemical substance, Gene No. 4973: +
[1]; gene group (C), Unigene No. Rn.119024
  Behavior of gene caused by administration of chemical substance, Gene No. 4095: +
[1]; [3]
  Behavior of gene caused by administration of chemical substance, Gene No. 1334: −
  Behavior of gene caused by administration of chemical substance, Gene No. 6620: −
[1]; gene group (C), Unigene No. Rn.123063
  Behavior of gene caused by administration of chemical substance, Gene No. 6303: −
[1]; gene group (C), Unigene No. Rn.143213
  Behavior of gene caused by administration of chemical substance, Gene No. 5878: +
[1]; gene group (C), Unigene No. Rn.144946
  Behavior of gene caused by administration of chemical substance, Gene No. 1131: +
[1]; gene group (C), Unigene No. Rn.14744
  Behavior of gene caused by administration of chemical substance, Gene No. 1562: +
[1]; gene group (C), Unigene No. Rn.1647
  Behavior of gene caused by administration of chemical substance, Gene No. 1741: +
[1]; gene group (C), Unigene No. Rn.164817
  Behavior of gene caused by administration of chemical substance, Gene No. 893: +
[1]; gene group (C), Unigene No. Rn.167685
  Behavior of gene caused by administration of chemical substance, Gene No. 6026: −
[1]; gene group (C), Unigene No. Rn.185941
  Behavior of gene caused by administration of chemical substance, Gene No. 154: +
[1]; gene group (C), Unigene No. Rn.18728
  Behavior of gene caused by administration of chemical substance, Gene No. 1993: +
[1]; gene group (C), Unigene No. Rn.201760
  Behavior of gene caused by administration of chemical substance, Gene No. 813: −
[1]; gene group (C), Unigene No. Rn.23969
  Behavior of gene caused by administration of chemical substance, Gene No. 2494: −
[1]; gene group (C), Unigene No. Rn.24561
  Behavior of gene caused by administration of chemical substance, Gene No. 2546: +
[1]; gene group (C), Unigene No. Rn.43232
  Behavior of gene caused by administration of chemical substance, Gene No. 3776: +
[1]; gene group (C), Unigene No. Rn.4620
  Behavior of gene caused by administration of chemical substance, Gene No. 3929: +
[1]; gene group (C), Unigene No. Rn.9757
  Behavior of gene caused by administration of chemical substance, Gene No. 1119: +
[1]; gene group (C), Unigene No. Rn.9779
  Behavior of gene caused by administration of chemical substance, Gene No. 6742: −
[1]; gene group (C), Unigene No. Rn.9862
  Behavior of gene caused by administration of chemical substance, Gene No. 5634: −
[1]; gene group (D), Unigene No. Rn.9939
  Behavior of gene caused by administration of chemical substance, Gene No. 5726: −
rodent
  Carcinogenicity: C−

## CN(C)N=O [TS041, N-Nitrosodimethylamine]
liver
  Liver carcinogenicity: Cr+
[1]; (A), Unigene Rn.144554, defined direction +, rat liver, oral once daily 28 days
  Behavior of gene caused by administration of chemical substance, Gene No. 4846: +
[1]; (A), Unigene Rn.167075, defined direction +, rat liver, oral once daily 28 days, significant = 1.5 times or more or 1/1.5 or less of control
  Behavior of gene caused by administration of chemical substance, Gene No. 4218: +
[1]; (A), Unigene Rn.167075, defined direction −, rat liver, oral once daily 28 days
  Behavior of gene caused by administration of chemical substance, Gene No. 2026: −
[1]; (A), Unigene Rn.5834, defined direction +, rat liver, oral once daily 28 days
  Behavior of gene caused by administration of chemical substance, Gene No. 6182: +
[1]; (A), Unigene Rn.9836, defined direction +, rat liver, oral once daily 28 days
  Behavior of gene caused by administration of chemical substance, Gene No. 5600: +
[1]; (B), Unigene Rn.1430, defined direction −, rat liver, oral once daily 28 days
  Behavior of gene caused by administration of chemical substance, Gene No. 1494: −
[1]; (B), Unigene Rn.19329, defined direction +, rat liver, oral once daily 28 days
  Behavior of gene caused by administration of chemical substance, Gene No. 2045: −
[1]; (B), Unigene Rn.21240, defined direction +, rat liver, oral once daily 28 days
  Behavior of gene caused by administration of chemical substance, Gene No. 2203: −
[1]; (C), Unigene Rn.106184, defined direction +, rat liver, oral once daily 28 days
  Behavior of gene caused by administration of chemical substance, Gene No. 533: −
[1]; (C), Unigene Rn.108075, defined direction −, rat liver, oral once daily 28 days
  Behavior of gene caused by administration of chemical substance, Gene No. 725: −
[1]; (C), Unigene Rn.11766, defined direction +, rat liver, oral once daily 28 days
  Behavior of gene caused by administration of chemical substance, Gene No. 1163: −
[1]; (C), Unigene Rn.118529, defined direction −, rat liver, oral once daily 28 days
  Behavior of gene caused by administration of chemical substance, Gene No. 4973: −
[1]; (C), Unigene Rn.119024, defined direction −, rat liver, oral once daily 28 days
  Behavior of gene caused by administration of chemical substance, Gene No. 4095: −
[1]; [4]
  Behavior of gene caused by administration of chemical substance, Gene No. 1334: −
  Behavior of gene caused by administration of chemical substance, Gene No. 6620: −
[1]; (C), Unigene Rn.123063, defined direction −, rat liver, oral once daily 28 days
  Behavior of gene caused by administration of chemical substance, Gene No. 6303: −
[1]; (C), Unigene Rn.143213, defined direction −, rat liver, oral once daily 28 days
  Behavior of gene caused by administration of chemical substance, Gene No. 5878: −
[1]; (C), Unigene Rn.144946, defined direction −, rat liver, oral once daily 28 days
  Behavior of gene caused by administration of chemical substance, Gene No. 1131: −
[1]; (C), Unigene Rn.14744, defined direction −, rat liver, oral once daily 28 days
  Behavior of gene caused by administration of chemical substance, Gene No. 1562: −
[1]; (C), Unigene Rn.1647, defined direction −, rat liver, oral once daily 28 days
  Behavior of gene caused by administration of chemical substance, Gene No. 1741: −
[1]; (C), Unigene Rn.164817, defined direction +, rat liver, oral once daily 28 days
  Behavior of gene caused by administration of chemical substance, Gene No. 893: −
[1]; (C), Unigene Rn.167685, defined direction −, rat liver, oral once daily 28 days
  Behavior of gene caused by administration of chemical substance, Gene No. 6026: −
[1]; (C), Unigene Rn.185941, defined direction −, rat liver, oral once daily 28 days
  Behavior of gene caused by administration of chemical substance, Gene No. 154: −
[1]; (C), Unigene Rn.18728, defined direction −, rat liver, oral once daily 28 days
  Behavior of gene caused by administration of chemical substance, Gene No. 1993: −
[1]; (C), Unigene Rn.201760, defined direction +, rat liver, oral once daily 28 days
  Behavior of gene caused by administration of chemical substance, Gene No. 813: −
[1]; (C), Unigene Rn.23969, defined direction +, rat liver, oral once daily 28 days
  Behavior of gene caused by administration of chemical substance, Gene No. 2494: −
[1]; (C), Unigene Rn.24561, defined direction −, rat liver, oral once daily 28 days
  Behavior of gene caused by administration of chemical substance, Gene No. 2546: −
[1]; (C), Unigene Rn.43232, defined direction −, rat liver, oral once daily 28 days
  Behavior of gene caused by administration of chemical substance, Gene No. 3776: −
[1]; (C), Unigene Rn.4620, defined direction +, rat liver, oral once daily 28 days
  Behavior of gene caused by administration of chemical substance, Gene No. 3929: −
[1]; (C), Unigene Rn.9757, defined direction +, rat liver, oral once daily 28 days
  Behavior of gene caused by administration of chemical substance, Gene No. 1119: −
[1]; (C), Unigene Rn.9779, defined direction +, rat liver, oral once daily 28 days
  Behavior of gene caused by administration of chemical substance, Gene No. 6742: +
[1]; (C), Unigene Rn.9862, defined direction −, rat liver, oral once daily 28 days
  Behavior of gene caused by administration of chemical substance, Gene No. 5634: −
[1]; (D), Unigene Rn.9939, defined direction −, rat liver, oral once daily 28 days
  Behavior of gene caused by administration of chemical substance, Gene No. 5726: −
rodent
  Carcinogenicity: C+
